In patent US10829520B2, “Beta-hairpin peptidomimetics” (POLYPHOR AG, priority 2015, dated 2020):
Where a SMILES comes first, the peptide text is derived from it. Bridges are numbered along the chain shown (N, C = ends). Roman numbers before positions name the chains, in order. [ ]: non-standard residue; d: D form. Tle = CC(C)(C)[C@H](N)C(=O)O; dDab = NCC[C@@H](N)C(=O)O; Nle = CCCC[C@H](N)C(=O)O; Orn = NCCC[C@H](N)C(=O)O; Dab = NCC[C@H](N)C(=O)O; Dap = NC[C@H](N)C(=O)O

How the values were obtained:
Type in all cases: cell-based
[1] = system: Acinetobacter baumannii 872842; conditions: 872842
[2] = system: Acinetobacter baumannii DSM 30008; conditions: DSM 30008
Method in brief: (§1)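 Read-out is the minimal inhibitory concentration in μg/mL, taken as the lowest peptide level without visible growth after 18-20 h at 35° C. Testing followed CLSI broth microdilution in cation-adjusted Mueller-Hinton II broth plus 0.002% Polysorbate 80, with roughly 10^6 CFU/mL.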

Escherichia coli 926415 = conditions: 926415
[3] = system: Escherichia coli ATCC 25922; conditions: ATCC 25922
Method in brief: as §1

[4] = system: Klebsiella pneumoniae 968733; conditions: 968733
[5] = system: Klebsiella pneumoniae SSI #3010; conditions: SSI #3010
Method in brief: as §1

[6] = system: Pseudomonas aeruginosa ATCC 27853; conditions: ATCC 27853
Method in brief: as §1

[7] = system: human red blood cells (hRBC); assay: Hemolysis of human red blood cells; conditions: red cells of human, 1 h
Method in brief: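 Washed fresh human erythrocytes (20% v/v, ~0.9×10^9 cells/mL final) were incubated with peptides at 100 μg/mL for 1 h at 37 °C with shaking. Supernatant OD540 measured; hemolysis expressed as % of 2.5% Triton X-100 lysis, with PBS/0.001% acetic acid as 0%.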

Structure (SMILES) | Acinetobacter baumannii 872842 MIC [1] [µg/mL] | Acinetobacter baumannii DSM 30008 MIC [2] [µg/mL] | Escherichia coli 926415 MIC (Escherichia coli 926415) [µg/mL] | Escherichia coli ATCC 25922 MIC [3] [µg/mL] | Klebsiella pneumoniae 968733 MIC [4] [µg/mL] | Klebsiella pneumoniae SSI #3010 MIC [5] [µg/mL] | Pseudomonas aeruginosa ATCC 27853 MIC [6] [µg/mL] | Hemolysis at 100 μg/mL ([7]; 100 μg/mL) [%] | Hemolysis at 100 μg/mL [7]; 100 [%]
CCCC[C@@H]1NC(=O)[C@@H]2CCCN2C(=O)[C@H]2CCCN2C(=O)[C@H](CO)NC(=O)[C@H](C)NC(=O)[C@H](C(C)(C)C)NC(=O)[C@@H](NC(=O)[C@H](Cc2c[nH]c3ccccc23)NC(C)=O)CSSC[C@@H](C(=O)N[C@@H](CCCN)C(=O)N[C@H](CCN)C(=O)N[C@H]2CCNC(=O)[C@H]([C@@H](C)O)NC(=O)[C@H](CCN)NC(=O)[C@H](CCN)NC(=O)[C@H](CC(C)C)NC(=O)[C@@H](Cc3ccccc3)NC(=O)[C@H](CCN)NC2=O)NC(=O)[C@H](Cc2ccc(O)cc2)NC(=O)[C@H](CO)NC1=O [Ex. 49] (Ac-WC[Tle]AS[dP]P[Nle]SYC[Orn][dDab][Dab][Dab][dF]L[Dab][Dab]T; disulfide 2-11; lactam 14-C) | 1 | 0.25 | 0.5 | 0.25 | 1 | 0.5 | 1 | <1 | 
CCCC[C@@H]1NC(=O)[C@@H]2CCCN2C(=O)[C@H]2CCCN2C(=O)[C@H](CO)NC(=O)[C@H](CO)NC(=O)[C@H](C(C)(C)C)NC(=O)[C@H](CCN)NC(=O)[C@H](Cc2c[nH]c3ccccc23)NC(=O)[C@@H](N)CSSC[C@@H](C(=O)N[C@@H](C)C(=O)N[C@H](CCN)C(=O)N[C@H]2CCNC(=O)[C@H]([C@@H](C)O)NC(=O)[C@H](CCN)NC(=O)[C@H](CCN)NC(=O)[C@H](CC(C)C)NC(=O)[C@@H](Cc3ccccc3)NC(=O)[C@H](CCN)NC2=O)NC(=O)[C@H](CCCN)NC(=O)[C@H](CCN)NC(=O)[C@H](Cc2ccc(O)cc2)NC(=O)[C@H](CO)NC1=O [Ex. 199] (H-CW[Dab][Tle]SS[dP]P[Nle]SY[Dab][Orn]CA[dDab][Dab][Dab][dF]L[Dab][Dab]T; disulfide 1-14; lactam 17-C) | 0.5 | 2 | 0.5 | 0.25 | 4 | 0.5 | 2 | <1 | 
CC(C)C[C@@H]1NC(=O)[C@@H](Cc2ccccc2)NC(=O)[C@H](CCN)NC(=O)[C@@H](NC(=O)[C@H](CCN)NC(=O)[C@@H](NC(=O)[C@H](CCN)NC(=O)[C@H]2CC(=O)N[C@@H](CCN)C(=O)N[C@@H](Cc3c[nH]c4ccccc34)C(=O)N[C@@H](CCN)C(=O)N[C@@H](C(C)(C)C)C(=O)N[C@@H](C)C(=O)N[C@@H](CO)C(=O)N3CCC[C@@H]3C(=O)N3CCC[C@H]3C(=O)N[C@@H](C(C)C)C(=O)N[C@@H](CO)C(=O)N[C@@H](Cc3ccc(O)cc3)C(=O)N[C@@H](CCN)C(=O)N[C@@H](CCCN)C(=O)N2)[C@@H](C)O)CCNC(=O)[C@H]([C@@H](C)O)NC(=O)[C@H](CCN)NC(=O)[C@H](CCN)NC1=O [Ex. 8] ([Dab]W[Dab][Tle]AS[dP]PVSY[Dab][Orn][dD][Dab]T[Dab][Dab][Dab][dF]L[Dab][Dab]T; lactam 18-C, N-14) | 0.5 | 0.5 | 1 | 0.25 | 2 | 0.25 | 0.25 |  | 1
CC(C)C[C@@H]1NC(=O)[C@H](CO)NC(=O)[C@H](Cc2ccc(O)cc2)NC(=O)[C@@H]2CCCN2C(=O)[C@H]2CCCN2C(=O)[C@H](C(C)C)NC(=O)[C@H](C)NC(=O)[C@H](C(C)C)NC(=O)[C@@H](NC(=O)[C@@H](N)C(C)C)CSSC[C@@H](C(=O)NCC(=O)N[C@@H](CCN)C(=O)N[C@H](C(=O)N[C@@H](CCN)C(=O)N[C@H]2CCNC(=O)[C@H]([C@@H](C)O)NC(=O)[C@H](CCN)NC(=O)[C@H](CCN)NC(=O)[C@H](CC(C)C)NC(=O)[C@@H](CC(C)C)NC(=O)[C@H](CCN)NC2=O)[C@@H](C)O)NC1=O [Ex. 155] (H-VCVAV[dP]PYSLCG[Dab]T[Dab][Dab][Dab][dL]L[Dab][Dab]T; disulfide 2-11; lactam 16-C) | 0.0625 | 0.03125 | 0.25 | 0.0625 | 0.5 | 0.0625 | 1 | <1 | 
CCCC[C@@H]1NC(=O)[C@@H]2CCCN2C(=O)[C@H]2CCCN2C(=O)[C@H](CO)NC(=O)[C@H](C)NC(=O)[C@H](C(C)(C)C)NC(=O)[C@H](CCN)NC(=O)[C@H](Cc2c[nH]c3ccccc23)NC(=O)[C@@H](NC(C)=O)CCC(=O)NCC[C@@H](C(=O)N[C@@H](CCN)C(=O)N[C@H]2CCNC(=O)[C@H]([C@@H](C)O)NC(=O)[C@H](CCN)NC(=O)[C@H](CCN)NC(=O)[C@H](CC(C)C)NC(=O)[C@@H](Cc3ccccc3)NC(=O)[C@H](CCN)NC2=O)NC(=O)[C@H](CCCN)NC(=O)[C@H](CCN)NC(=O)[C@H](Cc2ccc(O)cc2)NC(=O)[C@H](CO)NC1=O [Ex. 58] (Ac-EW[Dab][Tle]AS[dP]P[Nle]SY[Dab][Orn][Dab][Dab][Dab][Dab][dF]L[Dab][Dab]T; lactam 1-14, 16-C) | 0.5 | 0.25 | 0.25 | 0.125 | 2 | 0.125 | 0.5 |  | <1
CCCC[C@@H]1NC(=O)[C@@H]2CCCN2C(=O)[C@H]2CCCN2C(=O)[C@H](CO)NC(=O)[C@H](CO)NC(=O)[C@H](C(C)(C)C)NC(=O)[C@H](CCN)NC(=O)[C@H](Cc2c[nH]c3ccccc23)NC(=O)[C@H](CCN)NC(=O)[C@@H](CCN)NC(=O)[C@H](CCC(=O)N[C@@H](CCN)C(=O)N[C@H](C(=O)N[C@@H](CCN)C(=O)N[C@H]2CCNC(=O)[C@H]([C@@H](C)O)NC(=O)[C@H](CCN)NC(=O)[C@H](CCN)NC(=O)[C@H](CC(C)C)NC(=O)[C@@H](CC(C)C)NC(=O)[C@H](CCN)NC2=O)[C@@H](C)O)NC(=O)[C@H](CCN)NC(=O)[C@H](Cc2ccc(O)cc2)NC(=O)[C@H](CN)NC1=O [Ex. 83] (I: cyclo([Nle][Dap]Y[Dab]E[dDab][Dab]W[Dab][Tle]SS[dP]P) / II: [Dab]T[Dab][Dab][Dab][dL]L[Dab][Dab]T; amide I:5-II:N; lactam II:4-II:C) | 1 | 1 | 1 | 2 | 4 | 2 | 1 |  | 1
CCCC[C@@H]1NC(=O)[C@@H]2CCCN2C(=O)[C@H]2CCCN2C(=O)[C@H](CO)NC(=O)[C@H](C)NC(=O)[C@H](C(C)(C)C)NC(=O)[C@H](CCN)NC(=O)[C@H](Cc2c[nH]c3ccccc23)NC(=O)[C@@H](N)CCC(=O)NCC[C@@H](C(N)=O)NC(=O)[C@H](CCC(=O)N[C@H](CCN)C(=O)N[C@H]2CCNC(=O)[C@H]([C@@H](C)O)NC(=O)[C@H](CCN)NC(=O)[C@H](CCN)NC(=O)[C@H](CC(C)C)NC(=O)[C@@H](Cc3ccccc3)NC(=O)[C@H](CCN)NC2=O)NC(=O)[C@H](CCN)NC(=O)[C@H](Cc2ccc(O)cc2)NC(=O)[C@H](CO)NC1=O [Ex. 193] (I: H-EW[Dab][Tle]AS[dP]P[Nle]SY[Dab]E[Dab]-NH2 / II: [dDab][Dab][Dab][dF]L[Dab][Dab]T; lactam I:1-I:14, II:2-II:C; amide I:13-II:N) | 1 | 1 | 0.5 | 0.5 | 1 | 0.5 | 2 |  | <1
CC(C)C[C@@H]1NC(=O)[C@@H](CC(C)C)NC(=O)[C@H](CCN)NC(=O)[C@@H](NC(=O)[C@H](CCN)NC(=O)[C@@H](NC(=O)[C@H](CCN)NC(=O)CC[C@@H]2NC(=O)CNC(=O)[C@H](CCCN)NC(=O)[C@H](CCN)NC(=O)[C@H](Cc3ccc(O)cc3)NC(=O)[C@H](CO)NC(=O)[C@H](CC(C)C)NC(=O)[C@@H]3CCCN3C(=O)[C@H]3CCCN3C(=O)[C@H](CO)NC(=O)[C@H]([C@@H](C)O)NC(=O)[C@H](C(C)C)NC(=O)[C@H](CCN)NC(=O)[C@H](Cc3c[nH]c4ccccc34)NC2=O)[C@@H](C)O)CCNC(=O)[C@H]([C@@H](C)O)NC(=O)[C@H](CCN)NC(=O)[C@H](CCN)NC1=O [Ex. 94] (I: cyclo(LSY[Dab][Orn]GEW[Dab]VTS[dP]P) / II: [Dab]T[Dab][Dab][Dab][dL]L[Dab][Dab]T; amide I:7-II:N; lactam II:4-II:C) | 0.25 | 0.0625 | 1 | 0.0625 | 0.5 | 0.125 | 0.25 |  | 1
